Entries after “also recorded” stand apart in the source; their conditions may differ.
Legend:
[1] = test system: Quantitative Lung Fibrosis (QLF); experiment: Phase 2a trial in IPF, HRCT-based Quantitative Lung Fibrosis; assay type: in vivo, human; conditions: baseline to week 12, CT Protocol Population
From the text: (§1) The exploratory endpoints of the trial measured changes in forced vital capacity (FVC), HRCT-based Quantitative Lung Fibrosis score (QLF), and selected biomarkers over 3 months of treatment.
FIG. 29 illustrates the Mean Percent Change in Quantitative Lung Fibrosis (the extent from baseline to week 12 in the CT Protocol Population), using High-Resolution Computed Tomography (HRCT) based Quantitative Lung Fibrosis (QLF) imaging.

[2] = test system: forced vital capacity (FVC); experiment: Phase 2a trial in IPF, forced vital capacity; assay type: in vivo, human
From the text: as §1
FIG. 19 illustrates the change in FVC (forced vital capacity) from baseline to Week 12, MMRM Analysis—ITT Population. Change from baseline analyzed using a mixed model for repeated measures with terms for treatment group, SOC (Y/N), visit, baseline value, and treatment-by-visit interaction. An unstructured covariance (UN) structure was used.

[3] = Unbound plasma concentration in the PET study; assay type: in vivo, human; conditions: IPF
Description: (§2) This Example was conducted as an open-label, single-dose (60 mg, 120 mg, 240 mg or 320 mg) clinical trial evaluating αVβ6 receptor occupancy in the lungs, safety, and pharmacokinetics of Compound 5 in subjects with IPF. Knottin tracer uptake kinetics were compared pre- and post-dose of the disclosed compound, as measured by standardized uptake values (SUVs) and parameters estimated from kinetic modeling in regions-of-interest on dynamic [^18F]FP-R01-MG-F2 PET/CT scans. […] Receptor occupancy was estimated from the output of the two-compartment model (VT, the volume of labeled tissue) using standard equations and fitting algorithms, and corrections for VND (non-displaceable tracer binding). For example, in FIG. 8, the data points, shown as circles, are modeled by the following formula: […]
(§3) Five subjects with IPF were enrolled: Subject A received a single dose of 60 mg of the disclosed compound followed by a post-dose scan. Subject B received two doses of the disclosed compound separated by two weeks, 120 mg and 240 mg, each followed by a post-dose scan. Subject C received two doses of the disclosed compound separated by two weeks, 240 mg and 320 mg, each followed by a post-dose scan. Subject D received a single dose of 320 mg of the disclosed compound followed by a post-dose scan.

αVβ6 = molecular target: T1, αVβ6 (Homo sapiens, UniProt P06756+P18564); experiment: αVβ6 target engagement in IPF lungs, [18F]FP-R01-MG-F2 PET/CT; assay type: in vivo; set-up: key to Vt: VT = volume of labeled tissue, from two-compartment kinetic model; key to Vs (corrected for non-displaceable binding, VND = 0.66): VT corrected for non-displaceable tracer binding (VND)
T1 construct: evaluating αVβ6 receptor occupancy in the lungs; from tissue; host or cells: lungs of living participants with IPF (in vivo PET/CT)
Description: The aim of this Example is to assess target engagement of the disclosed compounds to αVβ6 in participants with IPF using [^18F]FP-R01-MG-F2 PET/computerized tomography (CT) imaging.
as §2, §3

[4] = test system: IPF-derived human lung fibroblasts; experiment: LAP adhesion assay, IPF-derived human lung fibroblasts (express αVβ1); assay type: cell-based; conditions: LAP-coated plates, cell index, xCELLigence; FIG. 1B
Description: Two latency associated peptide (LAP) adhesion binding assays were devised using primary human lung cells, including normal (healthy) human bronchial epithelial cells and human lung fibroblasts (healthy and IPF).
Human lung fibroblasts derived from normal and IPF lung tissue are known to express αVβ1 integrin. The IPF-derived human lung fibroblasts were prepared for the assay by dissociation with trypsin/EDTA, and were seeded at 20,000 cells per well on 96 well plates (ACEA Bioscience E-plate View, Acea Biosciences; San Diego, CA) previously coated with 5 µg/ml of recombinant human LAP (R&D Systems; Minneapolis, MN) and blocked with 4% bovine serum albumin. Cell index (electrical impedance) was measured to assess cell attachment/spreading every 3 minutes for 24 hours at 37° C./5% CO2 using the xCELLigence RTCA MP Instrument (Acea Biosciences; San Diego, CA). […] In the assay, the IPF-derived human lung fibroblasts were separately incubated with: the αVβ1-selective small molecule inhibitor; the selective antibody αVβ6 inhibitor, 3G9; and compound 5.

[5] = SAD/MAD first-in-human pharmacokinetics; assay type: in vivo; conditions: healthy subjects
Description: Healthy human subjects (N=85) were selected for single ascending dose (SAD) and multiple ascending dose (MAD) first-in-human studies. A solution for oral administration was prepared, containing 10 mg/mL of compound 5 in a 50:50 mixture of ORA-SWEET® SF (PERRIGO®, Allegan, Michigan) and sterile water for irrigation. Sufficient solution was administered orally to the subjects to provide between 15 mg/dose and 75 mg/dose of compound 5 in the SAD study and between 10 mg/dose and 40 mg/dose of compound 5 in the MAD study. Concentrations of compound 5 were measured in the subjects by obtaining a sample of plasma from each subject at desired intervals, and subjecting the plasma to liquid chromatography-mass spectrometry-mass spectrometry (LC-MS/MS), with quantification using a calibration curve determined from a range of solutions at standardized concentrations. The lower limit of quantitation (LLOQ) of the assay was 1 ng/mL and the calibration curve range was 1 to 500 ng/mL.

[6] = Phase 2a trial in IPF, pharmacokinetics; assay type: in vivo, human
From the text: Overall Summary of Safety Pharmacokinetics.

T1 sequence (P06756 31-889 limits assumed): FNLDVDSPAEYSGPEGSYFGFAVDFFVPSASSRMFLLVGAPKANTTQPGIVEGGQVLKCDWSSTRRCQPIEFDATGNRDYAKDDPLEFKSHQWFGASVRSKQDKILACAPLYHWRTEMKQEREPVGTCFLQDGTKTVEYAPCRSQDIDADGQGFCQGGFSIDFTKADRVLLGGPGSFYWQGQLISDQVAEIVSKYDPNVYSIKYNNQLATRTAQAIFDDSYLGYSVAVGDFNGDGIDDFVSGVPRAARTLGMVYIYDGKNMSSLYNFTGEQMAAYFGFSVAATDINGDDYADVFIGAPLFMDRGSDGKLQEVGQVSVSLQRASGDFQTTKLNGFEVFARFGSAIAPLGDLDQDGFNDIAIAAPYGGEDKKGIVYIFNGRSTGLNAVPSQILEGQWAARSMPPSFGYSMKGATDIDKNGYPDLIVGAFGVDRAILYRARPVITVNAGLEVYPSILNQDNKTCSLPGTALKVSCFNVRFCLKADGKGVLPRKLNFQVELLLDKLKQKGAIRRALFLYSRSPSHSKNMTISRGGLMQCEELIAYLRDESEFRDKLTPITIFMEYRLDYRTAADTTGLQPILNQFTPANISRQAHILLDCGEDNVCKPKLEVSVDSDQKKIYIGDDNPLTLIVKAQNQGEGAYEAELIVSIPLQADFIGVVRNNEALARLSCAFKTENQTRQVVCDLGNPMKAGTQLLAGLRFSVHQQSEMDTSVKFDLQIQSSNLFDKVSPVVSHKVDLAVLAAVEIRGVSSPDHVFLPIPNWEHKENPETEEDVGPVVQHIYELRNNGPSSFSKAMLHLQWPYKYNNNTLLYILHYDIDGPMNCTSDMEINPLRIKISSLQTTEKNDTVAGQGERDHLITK
T1 sequence (P06756 891-1048 partner limits assumed): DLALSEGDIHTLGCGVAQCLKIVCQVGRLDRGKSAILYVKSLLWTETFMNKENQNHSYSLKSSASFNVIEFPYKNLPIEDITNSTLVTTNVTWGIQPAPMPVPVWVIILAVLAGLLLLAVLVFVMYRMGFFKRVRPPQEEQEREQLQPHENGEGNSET
T1 sequence (P18564 22-788): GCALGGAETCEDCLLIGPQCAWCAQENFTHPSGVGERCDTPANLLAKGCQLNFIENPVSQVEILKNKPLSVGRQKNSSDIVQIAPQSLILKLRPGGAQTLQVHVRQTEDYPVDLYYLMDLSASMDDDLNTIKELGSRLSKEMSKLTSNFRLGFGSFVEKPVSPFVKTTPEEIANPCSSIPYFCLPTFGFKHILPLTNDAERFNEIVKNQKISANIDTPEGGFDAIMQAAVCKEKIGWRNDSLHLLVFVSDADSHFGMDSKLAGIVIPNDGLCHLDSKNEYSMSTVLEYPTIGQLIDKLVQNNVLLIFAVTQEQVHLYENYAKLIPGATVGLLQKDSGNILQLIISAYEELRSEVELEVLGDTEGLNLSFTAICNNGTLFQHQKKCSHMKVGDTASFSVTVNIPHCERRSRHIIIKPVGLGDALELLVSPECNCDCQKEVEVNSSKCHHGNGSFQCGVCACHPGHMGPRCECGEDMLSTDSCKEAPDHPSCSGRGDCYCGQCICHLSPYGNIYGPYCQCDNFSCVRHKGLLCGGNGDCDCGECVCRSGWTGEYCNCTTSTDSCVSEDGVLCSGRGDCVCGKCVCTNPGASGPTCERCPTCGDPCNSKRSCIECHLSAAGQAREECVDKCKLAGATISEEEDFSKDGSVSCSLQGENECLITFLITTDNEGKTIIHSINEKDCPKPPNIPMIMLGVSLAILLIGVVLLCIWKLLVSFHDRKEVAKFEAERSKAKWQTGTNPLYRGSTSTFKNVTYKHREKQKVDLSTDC

For COCCN(CCCCc1ccc2c(n1)NCCC2)CC[C@H](Nc1ncnc2ccccc12)C(=O)O [Compound 5, (S)-4-((2-methoxyethyl)(4-(5,6,7,8-tetrahydro-1,8-naphthyridin-2-yl)butyl)amino)-2-(quinazolin-4-ylamino)butanoic acid], the “Improvers < −2% QLF extent change, (%)” value ([1]; 40 mg (N = 15)) was 6.6%, the “Median, QLF extent change” value ([1]; 40 mg (N = 15)) was 1.50% and the “Stable [−2, 2%) QLF extent change, (%)” value ([1]; 40 mg (N = 15)) was 46.7%. For the same compound, the “Worse > 2% QLF extent change, (%)” value ([1]; 40 mg (N = 15)) was 46.7%, the “Improvers < −2% QLF extent change, (%)” value ([1]; 80 mg (N = 18)) was 11.1% and the “Mean Difference (SD), QLF extent” value ([1]; 80 mg (N = 18)) was 0.70%. For the same compound, the “Median, QLF extent change” value ([1]; 80 mg (N = 18)) was −0.45%, the “Stable [−2, 2%) QLF extent change, (%)” value ([1]; 80 mg (N = 18)) was 72.2% and the “Worse > 2% QLF extent change, (%)” value ([1]; 80 mg (N = 18)) was 16.7%. The “Improvers < −2% QLF extent change, (%)” value ([1]; 160 mg (N = 14)) was 28.6%, the “Mean Difference (SD), QLF extent” value ([1]; 160 mg (N = 14)) was 0.00% and the “Median, QLF extent change” value ([1]; 160 mg (N = 14)) was −0.10%. The “Stable [−2, 2%) QLF extent change, (%)” value ([1]; 160 mg (N = 14)) was 50.0%, the “Worse > 2% QLF extent change, (%)” value ([1]; 160 mg (N = 14)) was 21.4% and the “increase in FVC relative to baseline” value ([2]; 80 mg QD, 12 weeks) was “+24.6 mL”. The “treatment effect on FVC versus placebo at 12 weeks” value ([2]; 40, 80, 160 mg QD) was “dose-dependent treatment effect”, the “proportion of patients experiencing a FVCpp decline of ≥10%, dose dependence” value ([2]; 40, 80, 160 mg QD, 12 weeks) was “Dose-dependent reduction; also recorded: dose-dependent decrease; also recorded: Dose dependent reduction” and the “treatment effect with and without standard of care therapy” value ([2]; all Compound 5 dose groups, SoC nintedanib or pirfenidone) was “A treatment effect was observed; also recorded: evident with and without use of standard-of-care agents”. The “Conc (Unbound Plasma Concentration)” value ([3]; Subject A, single 60 mg dose) was 3.66 nM, the “Conc (Unbound Plasma Concentration)” value ([3]; Subject B, 120 mg dose) was 10 nM and the “Conc (Unbound Plasma Concentration)” value ([3]; Subject B, 240 mg dose two weeks after 120 mg) was 58.3 nM. For the same compound, the “Conc (Unbound Plasma Concentration)” value ([3]; Subject C, 240 mg dose) was 103 nM, the “Conc (Unbound Plasma Concentration)” value ([3]; Subject D, single 320 mg dose) was 33.6 nM and the “decrease of the volume of distribution of the knottin radiotracer in the lungs” value (αVβ6; 60 mg dose) was “approximately 50%”. The “decrease of the volume of distribution of the knottin radiotracer in the lungs” value (αVβ6; 240 and 320 mg doses) was “greater than 95%”, the Receptor occupancy (αVβ6; IPF lungs, at pharmacologically relevant plasma concentrations) was > 95% and the “Vs (corrected for non-displaceable binding, VND = 0.66)” value (αVβ6; Subject A, 60 mg, post-dose scan (baseline Vs 2.47)) was 1.18. For the same compound, the Vt (αVβ6; Subject A, 60 mg, post-dose scan (baseline Vt 3.13)) was 1.84, the “% DeltaVt” value (αVβ6; Subject B, 120 mg) was 59.76% and the “Vs (corrected for non-displaceable binding, VND = 0.66)” value (αVβ6; Subject B, 120 mg, post-dose scan (baseline Vs 2.48)) was 0.99. The Vt (αVβ6; Subject B, 120 mg, post-dose scan (baseline Vt 3.12)) was 1.65, the “Vs (corrected for non-displaceable binding, VND = 0.66)” value (αVβ6; Subject B, 240 mg, post-dose scan (baseline Vs 2.46)) was 0.06 and the Vt (αVβ6; Subject B, 240 mg, post-dose scan (baseline Vt 3.12)) was 0.72. The “Vs (corrected for non-displaceable binding, VND = 0.66)” value (αVβ6; Subject C, 240 mg, post-dose scan (baseline Vs 1.1)) was 0,32, the Vt (αVβ6; Subject C, 240 mg, post-dose scan (baseline Vt 1.76)) was 0.98 and the “Vs (corrected for non-displaceable binding, VND = 0.66)” value (αVβ6; Subject C, 320 mg, post-dose scan (baseline Vs 1.1)) was 0.19. The Vt (αVβ6; Subject C, 320 mg, post-dose scan (baseline Vt 1.76)) was 0.85, the “Vs (corrected for non-displaceable binding, VND = 0.66)” value (αVβ6; Subject D, 320 mg, post-dose scan (baseline Vs 1.4)) was 0.09 and the Vt (αVβ6; Subject D, 320 mg, post-dose scan (baseline Vt 2.06)) was 0.75. The “concentration at which the exposure response saturates” value (αVβ6; measured drug exposure at 4 hours, approaching 100% receptor occupancy) was “about 100 nM”, the “inhibition of cell adhesion in the IPF-derived lung fibroblasts” value [4] was “substantially inhibited” and the “oral bioavailability and pharmacokinetics” value [5] was “good oral bioavailability and pharmacokinetics”. For the same compound, the “dose proportionality of plasma concentrations” value ([6]; IPF participants, 40-160 mg QD, sparse sampling) was “generally dose proportional increases; also recorded: increased approximately proportionally with dose” and the pharmacokinetic profile ([6]; IPF patients, 12-week treatment) was “favorable pharmacokinetic profile”.

Source: patent US20240350494A1, “THERAPEUTIC MODULATION OF INTEGRINS” (Pliant Therapeutics, Inc., priority 2021, published 2024)
